Assays:
[1] = target: isolated recombinant JAK1 kinase domain (Homo sapiens (Human), UniProt P23458); assay: JAK1 enzyme assay (Caliper LabChip, peptide phosphorylation); format: biochemical; settings: isolated recombinant JAK1 kinase domain, 25 μM ATP
[2] = target: isolated recombinant JAK2 kinase domain (Homo sapiens (Human), UniProt O60674); assay: JAK2 enzyme assay (Caliper LabChip, peptide phosphorylation); format: biochemical; settings: 25 μM ATP
isolated recombinant JAK2 kinase domain, sequence (O60674 849-1124): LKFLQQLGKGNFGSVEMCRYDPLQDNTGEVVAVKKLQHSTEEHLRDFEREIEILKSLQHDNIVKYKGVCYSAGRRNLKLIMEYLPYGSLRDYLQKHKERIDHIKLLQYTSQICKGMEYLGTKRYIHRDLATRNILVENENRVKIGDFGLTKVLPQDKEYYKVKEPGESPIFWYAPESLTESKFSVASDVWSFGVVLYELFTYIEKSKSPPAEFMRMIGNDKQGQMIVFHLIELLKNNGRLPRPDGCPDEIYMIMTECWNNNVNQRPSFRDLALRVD

isolated recombinant JAK1 kinase domain, sequence (P23458 875-1153): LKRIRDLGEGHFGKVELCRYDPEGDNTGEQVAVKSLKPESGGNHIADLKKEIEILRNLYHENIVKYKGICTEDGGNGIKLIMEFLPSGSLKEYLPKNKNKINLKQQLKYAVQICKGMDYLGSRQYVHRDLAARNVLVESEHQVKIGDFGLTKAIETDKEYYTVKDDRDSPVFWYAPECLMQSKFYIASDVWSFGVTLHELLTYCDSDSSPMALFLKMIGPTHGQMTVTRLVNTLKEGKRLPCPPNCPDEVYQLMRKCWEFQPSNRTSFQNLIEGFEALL

| Structure (SMILES) | Ki [1] | Ki [2] |
| --- | --- | --- |
| O=C(Nc1cn(CC(=O)N2CCN3CCCCC3C2)nc1-c1cc(Cl)ccc1OC(F)F)c1cnn2cccnc12 (centres unmarked) [Example 241, N-[1-[2-(1,3,4,6,7,8,9,9a-octahydropyrido[1,2-a]pyrazin-2-yl)-2-oxo-ethyl]-3-[5-chloro-2-(difluoromethoxy)phenyl]pyrazol-4-yl]pyrazolo[1,5-a]pyrimidine-3-carboxamide] | 0.87 nM | 1.25 nM |
| O=C(Nc1cn(CC(=O)N2CCN(CCOCCO)CC2)nc1-c1cc(Cl)ccc1OC(F)F)c1cnn2cccnc12 [Example 231, N-[3-[5-chloro-2-(difluoromethoxy)phenyl]-1-[2-[4-[2-(2-hydroxyethoxy)ethyl]piperazin-1-yl]-2-oxo-ethyl]pyrazol-4-yl]pyrazolo[1,5-a]pyrimidine-3-carboxamide] | 0.54 nM | 1.18 nM |
| O=C(Nc1cn(CC(=O)N2CC3(CCNCC3)C2)nc1-c1cc(Cl)ccc1OC(F)F)c1cnn2cccnc12 [Example 217, N-[3-[5-chloro-2-(difluoromethoxy)phenyl]-1-[2-(2,7-diazaspiro[3.5]nonan-2-yl)-2-oxo-ethyl]pyrazol-4-yl]pyrazolo[1,5-a]pyrimidine-3-carboxamide] | 1.07 nM | 1.37 nM |
| O=C(Nc1cn(CC(=O)N2CCC(F)(F)C2)nc1-c1cc(Cl)ccc1OC(F)F)c1cnn2cccnc12 [Example 287, N-[3-[5-chloro-2-(difluoromethoxy)phenyl]-1-[2-(3,3-difluoropyrrolidin-1-yl)-2-oxo-ethyl]pyrazol-4-yl]pyrazolo[1,5-a]pyrimidine-3-carboxamide] | 0.35 nM | 0.65 nM |
| Nc1nn2cccnc2c1C(=O)Nc1cn(CC(=O)N2CC[C@H](O)C2)nc1-c1cc(Cl)ccc1OC(F)F [Example 270, 2-amino-N-[3-[5-chloro-2-(difluoromethoxy)phenyl]-1-[2-[(3S)-3-hydroxypyrrolidin-1-yl]-2-oxo-ethyl]pyrazol-4-yl]pyrazolo[1,5-a]pyrimidine-3-carboxamide] |  | 0.2 nM |
| COCCN1CCN(C(=O)Cn2cc(NC(=O)c3c(N)nn4cccnc34)c(-c3cc(Cl)ccc3OC(F)F)n2)CC1 [Example 245, 2-amino-N-[3-[5-chloro-2-(difluoromethoxy)phenyl]-1-[2-[4-(2-methoxyethyl)piperazin-1-yl]-2-oxo-ethyl]pyrazol-4-yl]pyrazolo[1,5-a]pyrimidine-3-carboxamide] | 0.35 nM | 0.22 nM |
| O=C(Nc1sc(N2CCN(CCc3ccccc3)CC2)nc1-c1cc(Cl)ccc1OC(F)F)c1cnn2cccnc12 [Example 206, N-[4-[5-chloro-2-(difluoromethoxy)phenyl]-2-[4-(2-phenylethyl)piperazin-1-yl]thiazol-5-yl]pyrazolo[1,5-a]pyrimidine-3-carboxamide] | 14 nM | 8.67 nM |
| CN(C)CCOC1CCN(C(=O)Cn2cc(NC(=O)c3c(N)nn4cccnc34)c(-c3cc(Cl)ccc3OC(F)F)n2)CC1 [Example 137, 2-amino-N-[3-[5-chloro-2-(difluoromethoxy)phenyl]-1-[2-[4-[2-(dimethylamino)ethoxy]-1-piperidyl]-2-oxo-ethyl]pyrazol-4-yl]pyrazolo[1,5-a]pyrimidine-3-carboxamide] | 0.53 nM | 0.72 nM |
| Nc1nn2cccnc2c1C(=O)Nc1cn(CC(=O)N2CC3CNCC3C2)nc1-c1cc(Cl)ccc1OC(F)F (centres unmarked) [Example 10, N-[1-[2-(2,3,3a,4,6,6a-hexahydro-1H-pyrrolo[3,4-c]pyrrol-5-yl)-2-oxo-ethyl]-3-[5-chloro-2-(difluoromethoxy)phenyl]pyrazol-4-yl]-2-amino-pyrazolo[1,5-a]pyrimidine-3-carboxamide] | 0.65 nM | 0.32 nM |
| CN1CCC2CN(C(=O)Cn3cc(NC(=O)c4cnn5cccnc45)c(-c4cc(Cl)ccc4OC(F)F)n3)CC2C1 (centres unmarked) [Example 30, N-[3-[5-chloro-2-(difluoromethoxy)phenyl]-1-[2-(5-methyl-3,3a,4,6,7,7a-hexahydro-1H-pyrrolo[3,4-c]pyridin-2-yl)-2-oxo-ethyl]pyrazol-4-yl]pyrazolo[1,5-a]pyrimidine-3-carboxamide] | 0.7 nM | 1.69 nM |
| CN(C1CCN(C(=O)Cn2cc(NC(=O)c3cnn4cccnc34)c(-c3cc(Cl)ccc3OC(F)F)n2)CC1)C(Cc1ccccc1)C(F)(F)F (centres unmarked) [Example 133, N-[1-[2-[4-[(1-benzyl-2,2,2-trifluoro-ethyl)-methyl-amino]-1-piperidyl]-2-oxo-ethyl]-3-[5-chloro-2-(difluoromethoxy)phenyl]pyrazol-4-yl]pyrazolo[1,5-a]pyrimidine-3-carboxamide] | 6.51 nM | 8.33 nM |
| Nc1nn2cccnc2c1C(=O)Nc1cn(CC(=O)N2CCOC(CO)C2)nc1-c1cc(Cl)ccc1OC(F)F (centres unmarked) [Example 273, 2-amino-N-[3-[5-chloro-2-(difluoromethoxy)phenyl]-1-[2-[2-(hydroxy-methyl)morpholin-4-yl]-2-oxo-ethyl]pyrazol-4-yl]pyrazolo[1,5-a]pyrimidine-3-carboxamide] | 0.49 nM | 0.23 nM |
| CN1CC2(C1)CN(C(=O)Cn1cc(NC(=O)c3cnn4cccnc34)c(-c3cc(Cl)ccc3OC(F)F)n1)C2 [Example 214, N-[3-[5-chloro-2-(difluoromethoxy)phenyl]-1-[2-(6-methyl-2,6-diazaspiro[3.3]heptan-2-yl)-2-oxo-ethyl]pyrazol-4-yl]pyrazolo[1,5-a]pyrimidine-3-carboxamide] | 1.17 nM | 1.29 nM |
| CN(C)CCOC1CCN(C(=O)Cn2cc(NC(=O)c3cnn4cccnc34)c(-c3cc(Cl)ccc3OC(F)F)n2)CC1 [Example 73, N-[3-[5-chloro-2-(difluoromethoxy)phenyl]-1-[2-[4-[2-(dimethylamino)ethoxy]-1-piperidyl]-2-oxo-ethyl]pyrazol-4-yl]pyrazolo[1,5-a]pyrimidine-3-carboxamide] | 0.71 nM | 1.71 nM |
| N#Cc1ccc(N2CCN(C(=O)Cn3cc(NC(=O)c4cnn5cccnc45)c(-c4cc(Cl)ccc4OC(F)F)n3)CC2)cc1 [Example 237, N-[3-[5-chloro-2-(difluoromethoxy)phenyl]-1-[2-[4-(4-cyanophenyl)piperazin-1-yl]-2-oxo-ethyl]pyrazol-4-yl]pyrazolo[1,5-a]pyrimidine-3-carboxamide] | 0.32 nM | 0.76 nM |
| O=C(Nc1cn(CC(=O)N2CCC(OCCO)CC2)nc1-c1cc(Cl)ccc1OC(F)F)c1cnn2cccnc12 [Example 275, N-[3-[5-chloro-2-(difluoromethoxy)phenyl]-1-[2-[4-(2-hydroxyethoxy)-1-piperidyl]-2-oxo-ethyl]pyrazol-4-yl]pyrazolo[1,5-a]pyrimidine-3-carboxamide] | 0.31 nM | 0.89 nM |
| CN(CC1(C#N)CCCCC1)C1CCN(C(=O)c2ccc(-n3cc(NC(=O)c4cnn5cccnc45)c(-c4cc(Cl)ccc4OC(F)F)n3)cc2)CC1 [Example 187, N-[3-[5-chloro-2-(difluoromethoxy)phenyl]-1-[4-[4-[(1-cyanocyclohexyl)methyl-methyl-amino]piperidine-1-carbonyl]phenyl]pyrazol-4-yl]pyrazolo[1,5-a]pyrimidine-3-carboxamide] | 7.05 nM | 9.03 nM |
| CN1[C@@H]2CC[C@H]1CN(C(=O)Cn1cc(NC(=O)c3cnn4cccnc34)c(-c3cc(Cl)ccc3OC(F)F)n1)C2 [Example 242, N-[3-[5-chloro-2-(difluoromethoxy)phenyl]-l-[2-[(1S,5R)-8-methyl-3,8-diazabicyclo[3.2.1]octan-3-yl]-2-oxo-ethyl]pyrazol-4-yl]pyrazolo[1,5-a]pyrimidine-3-carboxamide] | 0.95 nM | 1.03 nM |
| Nc1nn2cccnc2c1C(=O)Nc1cn(CC(=O)N2CCC(Oc3ccccc3)CC2)nc1-c1cc(Cl)ccc1OC(F)F [Example 285, 2-amino-N-[3-[5-chloro-2-(difluoromethoxy)phenyl]-1-[2-oxo-2-(4-phenoxy-1-piperidyl)ethyl]pyrazol-4-yl]pyrazolo[1,5-a]pyrimidine-3-carboxamide] | 0.61 nM | 0.47 nM |
| CN1CCC2(CC1)CN(C(=O)Cn1cc(NC(=O)c3cnn4cccnc34)c(-c3cc(Cl)ccc3OC(F)F)n1)CCO2 [Example 213, N-[3-[5-chloro-2-(difluoromethoxy)phenyl]-1-[2-(9-methyl-1-oxa-4,9-diazaspiro[5.5]undecan-4-yl)-2-oxo-ethyl]pyrazol-4-yl]pyrazolo[1,5-a]pyrimidine-3-carboxamide] | 1.49 nM | 2.34 nM |
| CCOC(=O)CN(CCn1cc(NC(=O)c2cnn3cccnc23)c(-c2cc(Cl)ccc2OC(F)F)n1)Cc1cccnc1 [Example 362, ethyl 2-[(2-[3-[5-chloro-2-(difluoromethoxy)phenyl]-4-[pyrazolo[1,5-a]pyrimidine-3-amido]-1H-pyrazol-1-yl]ethyl)(pyridin-3-ylmethyl)amino]acetate] | 5.04 nM | 3.27 nM |
| CN(C)C1CN(C(=O)Cn2cc(NC(=O)c3c(N)nn4cccnc34)c(-c3cc(Cl)ccc3OC(F)F)n2)C1 [Example 138, 2-amino-N-[3-[5-chloro-2-(difluoromethoxy)phenyl]-1-[2-[3-(dimethylamino)azetidin-1-yl]-2-oxo-ethyl]pyrazol-4-yl]pyrazolo[1,5-a]pyrimidine-3-carboxamide] | 0.52 nM |  |
| C[C@@H]1CN(C(=O)Cn2cc(NC(=O)c3c(N)nn4cccnc34)c(-c3cc(Cl)ccc3OC(F)F)n2)C[C@H](C)N1 [Example 251, 2-amino-N-[3-[5-chloro-2-(difluoromethoxy)phenyl]-1-[2-[(3R,5S)-3,5-dimethylpiperazin-1-yl]-2-oxo-ethyl]pyrazol-4-yl]pyrazolo[1,5-a]pyrimidine-3-carboxamide] | 0.83 nM |  |
| CN1CCC2(CC1)CN(C(=O)Cn1cc(NC(=O)c3c(N)nn4cccnc34)c(-c3cc(Cl)ccc3OC(F)F)n1)CCO2 [Example 215, 2-amino-N-[3-[5-chloro-2-(difluoromethoxy)phenyl]-1-[2-(9-methyl-1-oxa-4,9-diazaspiro[5.5]undecan-4-yl)-2-oxo-ethyl]pyrazol-4-yl]pyrazolo[1,5-a]pyrimidine-3-carboxamide] | 1.33 nM |  |

Source: US9346815B2, “5-chloro-2-difluoromethoxyphenyl pyrazolopyrimidine compounds, compositions and methods of use thereof” (Genentech, Inc., priority 2014, dated 2016)
